In ChEMBL document CHEMBL1201862, “PubChem BioAssay data set” (2004):
Activity calls are given as the source filed them. Cut-off read from the data, not from the text of the source, for most assays here: actives have a measured EC50 and inactives only a lower limit.

Tests used:
[1] = HEp-2 cell cytotoxicity, dose response, cytotoxicity control for RSV inhibitor project, HTS (AID 2410); assay type: functional; details: human respiratory syncytial virus
H4 = assay: Luminescence Cell-Based Dose Response HTS to Identify Activators of 5'UTR Stem-Loop Driven Prion Protein mRNA Translation in H4 Neuroglioblastoma Cells. [Related pubchem assays: 1829 (Project Summary), 1814 (Primary HTS)]; assay type: functional; details: Homo sapiens
[2] = Luminescence Cell-Based Dose Response HTS to Identify Activators of Luciferase Translation or Activity in H4 […] Cells. [Related pubchem assays: 1829 (Project Summary), 1814 (Primary HTS)]; assay type: functional
[3] = Luminescence Cell-Based Dose Confirmation HTS to Identify Activators of 5'UTR Stem-Loop Driven Alpha-Synuclein mRNA Translation in H4 Neuroglioblastoma Cells. [Related pubchem assays: 1829 (Project Summary), 1814 (Primary HTS)]; assay type: functional
[4] = inhibitors of intracellular T. cruzi replication, confirmation, NIH3T3 host cells, beta-gal luminescence (AID 2044); assay type: functional, cell-based;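 note: intracellular parasites grown in NIH/3T3 mouse fibroblasts as host cells; luminescent beta-galactosidase reporter signal from transgenic T. cruzi replicating inside host cells; inhibitors lower the luminescence signal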
[5] = cytotoxicity toward NIH3T3 fibroblasts, dose response, counter-screen, cell-based, ATP luminescence, mouse fibroblasts (AID 2010); assay type: functional;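 note: cells exposed to compound for about 90 hours before reading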
[6] = target: T1, Replicative DNA helicase DnaB (Mycobacterium tuberculosis, UniProt P9WMR3); assay: DnaB intein splicing inhibitors, dose response, biochemical, cell-free fluorescence (AID 449749); assay type: functional
T1 sequence (P9WMR3 whole entry): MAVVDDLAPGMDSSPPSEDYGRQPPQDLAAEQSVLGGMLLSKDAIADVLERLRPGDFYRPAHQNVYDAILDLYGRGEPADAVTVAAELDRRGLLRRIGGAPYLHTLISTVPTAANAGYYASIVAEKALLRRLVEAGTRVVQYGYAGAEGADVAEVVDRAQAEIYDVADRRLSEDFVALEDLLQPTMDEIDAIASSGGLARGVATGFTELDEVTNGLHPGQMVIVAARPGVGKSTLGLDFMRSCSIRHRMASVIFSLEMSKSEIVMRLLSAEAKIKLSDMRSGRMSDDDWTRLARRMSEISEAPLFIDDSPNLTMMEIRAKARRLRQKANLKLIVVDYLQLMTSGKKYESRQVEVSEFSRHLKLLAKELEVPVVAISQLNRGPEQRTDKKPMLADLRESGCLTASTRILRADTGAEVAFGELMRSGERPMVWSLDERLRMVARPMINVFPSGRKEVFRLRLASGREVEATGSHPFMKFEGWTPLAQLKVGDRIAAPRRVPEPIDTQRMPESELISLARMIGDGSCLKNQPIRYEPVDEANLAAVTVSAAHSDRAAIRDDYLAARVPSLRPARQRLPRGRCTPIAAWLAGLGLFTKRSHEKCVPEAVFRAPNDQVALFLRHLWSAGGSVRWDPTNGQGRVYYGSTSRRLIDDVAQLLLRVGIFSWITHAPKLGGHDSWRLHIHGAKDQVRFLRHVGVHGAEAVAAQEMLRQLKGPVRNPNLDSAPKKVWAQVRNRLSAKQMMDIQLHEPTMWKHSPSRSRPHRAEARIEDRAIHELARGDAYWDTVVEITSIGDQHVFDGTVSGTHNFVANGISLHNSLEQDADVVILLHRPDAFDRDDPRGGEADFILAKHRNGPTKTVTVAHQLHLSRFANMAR

Protein RecA = target: T2, Protein RecA (Mycobacterium tuberculosis, UniProt P9WHJ3); assay: Fluorescence Cell-Free Homogeneous Dose Retest to Identify Inhibitors of RecA-Intein Splicing Activity. [Related pubchem assays (depositor defined):AID2097, AID2223, AID489010, AID492950]; assay type: functional
T2 sequence (P9WHJ3 whole entry): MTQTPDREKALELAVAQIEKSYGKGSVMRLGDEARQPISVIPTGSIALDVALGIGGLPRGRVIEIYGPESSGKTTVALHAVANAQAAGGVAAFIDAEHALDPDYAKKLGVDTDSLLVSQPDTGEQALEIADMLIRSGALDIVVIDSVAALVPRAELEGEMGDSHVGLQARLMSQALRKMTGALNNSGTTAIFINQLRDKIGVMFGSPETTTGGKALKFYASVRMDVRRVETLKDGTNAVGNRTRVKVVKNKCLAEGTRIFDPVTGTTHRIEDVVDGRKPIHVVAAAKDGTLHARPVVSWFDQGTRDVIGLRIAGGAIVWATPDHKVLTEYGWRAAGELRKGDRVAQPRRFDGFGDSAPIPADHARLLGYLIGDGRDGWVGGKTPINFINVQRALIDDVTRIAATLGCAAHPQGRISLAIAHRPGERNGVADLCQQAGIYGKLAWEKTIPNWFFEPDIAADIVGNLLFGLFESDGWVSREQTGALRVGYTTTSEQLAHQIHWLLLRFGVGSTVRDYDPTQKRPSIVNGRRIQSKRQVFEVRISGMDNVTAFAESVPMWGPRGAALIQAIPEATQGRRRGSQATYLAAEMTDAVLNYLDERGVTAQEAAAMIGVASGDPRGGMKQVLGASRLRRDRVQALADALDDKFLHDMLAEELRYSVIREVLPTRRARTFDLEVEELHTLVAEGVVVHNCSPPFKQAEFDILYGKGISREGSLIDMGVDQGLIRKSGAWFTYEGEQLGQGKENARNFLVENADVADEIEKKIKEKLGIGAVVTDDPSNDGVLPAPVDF

[7] = target: T3, Heat shock factor protein 1 (Mus musculus, UniProt P38532); assay: inhibition of MG132-induced HSE-luciferase signal, confirmation, cell-based, NIH3T3, luminescence, dose retest (AID 2382); assay type: functional;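 note: NIH3T3 fibroblasts with HSF1-driven luciferase reporter stressed by proteasome inhibitor MG132; luminescence from HSF1-driven luciferase expression after 8 hours of MG132 stress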
T3 sequence (P38532 whole entry): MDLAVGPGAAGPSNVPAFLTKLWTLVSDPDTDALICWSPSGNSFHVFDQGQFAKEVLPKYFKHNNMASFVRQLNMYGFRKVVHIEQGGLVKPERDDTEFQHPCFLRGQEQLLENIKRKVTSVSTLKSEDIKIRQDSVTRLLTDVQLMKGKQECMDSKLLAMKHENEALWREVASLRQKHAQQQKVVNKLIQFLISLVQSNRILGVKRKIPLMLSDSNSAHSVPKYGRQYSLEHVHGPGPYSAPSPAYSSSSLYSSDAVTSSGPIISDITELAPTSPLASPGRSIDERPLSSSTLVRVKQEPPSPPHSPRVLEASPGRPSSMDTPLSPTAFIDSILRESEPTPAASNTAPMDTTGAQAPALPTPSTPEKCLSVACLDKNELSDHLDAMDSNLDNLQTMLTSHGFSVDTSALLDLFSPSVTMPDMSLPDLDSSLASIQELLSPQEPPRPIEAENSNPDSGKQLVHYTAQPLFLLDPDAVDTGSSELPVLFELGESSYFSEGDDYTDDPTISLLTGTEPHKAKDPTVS

Cytochrome P450 2D6 = Cytochrome P450 2D6 (Homo sapiens, UniProt P10635);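 note: CYP2D6 member of a cytochrome P450 panel assay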
Chain of Cytochrome P450 2D6 (P10635 whole entry): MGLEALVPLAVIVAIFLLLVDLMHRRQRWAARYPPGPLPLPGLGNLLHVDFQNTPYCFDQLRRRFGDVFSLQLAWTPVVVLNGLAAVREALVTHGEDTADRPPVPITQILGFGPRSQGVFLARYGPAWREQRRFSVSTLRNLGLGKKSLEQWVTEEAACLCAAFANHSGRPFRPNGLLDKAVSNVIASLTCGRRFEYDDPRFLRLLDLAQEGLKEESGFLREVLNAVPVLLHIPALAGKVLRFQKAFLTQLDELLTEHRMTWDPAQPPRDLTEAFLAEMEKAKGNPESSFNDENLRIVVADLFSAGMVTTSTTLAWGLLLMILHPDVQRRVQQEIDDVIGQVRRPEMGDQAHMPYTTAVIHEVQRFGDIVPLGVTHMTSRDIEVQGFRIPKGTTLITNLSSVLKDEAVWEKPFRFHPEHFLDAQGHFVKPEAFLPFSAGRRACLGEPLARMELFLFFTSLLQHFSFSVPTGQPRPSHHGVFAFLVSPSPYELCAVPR

| SMILES | CC50 [1] | EC50 (H4) | EC50 [2] | EC50 [3] | also measured |
| --- | --- | --- | --- | --- | --- |
| O=S(=O)(c1cccc(-c2csc(-c3cccnc3)n2)c1)N1CCCCC1 | 28.9 µM (active) | – | – | – | – |
| C=CCn1cccc(C(=O)Nc2ccc(SC)cc2)c1=O | – | 9.44 µM (active) | 0.188 µM (active) | 0.229 µM (active) | – |
| O=C(COC(=O)c1ccccc1C(=O)c1ccccc1)Nc1ccc(SC(F)F)cc1 | 16.4 µM (active) | – | – | – | – |
| Cc1nc(C(=O)Nc2ccccc2)sc1C1(C)CC(c2cccnc2)=NO1 (configuration not stated) | – | 11.9 µM (active) | 30.4 µM (active) | 10.1 µM (active) | – |
| Cc1c(C(=O)NNC(=O)Nc2ccc([N+](=O)[O-])cc2)oc2ccccc12 | > 50 µM (active) | – | – | – | – |
| Cc1cc(-n2c(C)cc(C(=O)COC(=O)CNC3=NS(=O)(=O)c4ccccc43)c2C)no1 | 25.8 µM (active) | – | – | – | – |
| Nc1nn(-c2ccccc2)nc1C(=O)OCc1ccccc1 | – | 25.2 µM (active) | 13.7 µM (active) | > 120 µM (not active) | – |
| c1ccc2c(-c3nc(-c4ccncc4)no3)cccc2c1 | – | 51.4 µM (active) | > 120 µM (not active) | 0.841 µM (active) | – |
| Oc1nc(CCl)nc2cc(-c3ccc(Cl)cc3)sc12 | 14.5 µM (active) | – | – | – | EC50 [4]: 1.14 µM (active); EC50 [5]: 6.96 µM (active) |
| CC(C)c1ccc(NC(S)=NN2CCOCC2)cc1 | – | 22.2 µM (active) | 17.4 µM (active) | 18.4 µM (active) | – |
| Cc1ccc(-c2nn3c(C)nnc3s2)cc1N | 22.1 µM (active) | – | – | – | – |
| COc1ccccc1N=C(S)NNC(=O)c1ccc(Cl)cc1Cl | – | 61.7 µM (active) | 31.8 µM (active) | 10.9 µM (active) | – |
| O=[N+]([O-])c1ccc2nc(SCc3ccccc3Cl)sc2c1 | 29 µM (active) | – | – | – | – |
| CCn1cnc2cc(NCc3ccccc3Cl)ccc21 | 25 µM (active) | – | – | – | – |
| CCC1(c2ccccc2)NC(=O)N(CC(=O)Nc2cc(S(=O)(=O)N3CCCCCC3)ccc2OC)C1=O (configuration not stated) | 29.9 µM (active) | – | – | – | – |
| Cc1ccccc1OCc1nc(-c2ccc(NC(=O)c3cccs3)cc2)no1 | – | 1.46 µM (active) | 28.5 µM (active) | 23.8 µM (active) | – |

| SMILES | CC50 [1] | EC50 (H4) | EC50 [2] | EC50 [3] | also measured |
| --- | --- | --- | --- | --- | --- |
| COc1ccc(CN(C(=O)CSc2nnc(-c3ccccc3C)o2)c2ccc(F)cc2)cc1 | 29.4 µM (active) | – | – | – | AC50 [6]: 1.42 µM (active); EC50 (Protein RecA): 8.86 µM (active) |
| Cn1cc(/C=C2\SC(=O)N(c3ccc(O)cc3)C2=O)c2ccccc21 | 16 µM (active) | – | – | – | – |
| CCOc1ccc(NCc2nnc(SCc3ccccc3Cl)n2-c2ccccc2)cc1 | – | – | – | – | EC50 [7]: > 195 µM (not active); AC50 (Cytochrome P450 2D6): 25.1 µM (inconclusive) |
| Cc1ccc2c(c1)c1c3n2CCN(C(=O)Cn2c(-c4ccccc4)noc2=O)C3CCC1 (configuration not stated) | 38.8 µM (active) | – | – | – | – |
| Cc1ccc(Nc2nc(N)c([N+](=O)[O-])c(NCc3ccco3)n2)cc1 | > 50 µM (active) | – | – | – | – |
| Cn1cc(/C=C(\NC(=O)c2ccccc2Cl)C(=O)NCCN2CCOCC2)c2ccccc21 | – | > 120 µM (not active) | > 120 µM (not active) | > 120 µM (not active) | – |
| Cc1cccc(OCC2=NS(=O)(=O)c3ccccc3N2)c1 | – | > 120 µM (not active) | 9.74 µM (active) | > 120 µM (not active) | – |
| CC(C)(C)c1ccc(OCc2ccc(C(=O)NCc3cccnc3)o2)cc1 | – | > 120 µM (not active) | 5.94 µM (active) | 6.24 µM (active) | – |
| Cc1c(OCC(=O)NCc2cccnc2)ccc2c3c(c(=O)oc12)CCC3 | – | 15.4 µM (active) | > 120 µM (not active) | > 120 µM (not active) | – |
| O=C(NCc1nc2ccccc2[nH]1)C1=C[C@@H](c2csc3ccccc23)C[C@@H](OCc2ccc(CO)cc2)O1 | 39 µM (active) | – | – | – | – |
| COn1c2c(c3c4no[n+]([O-])c4ccc31)CCCC2 | 16.5 µM (active) | – | – | – | – |
| Cc1cc(CNC(=O)c2ccc3nc(Cc4ccccc4F)oc3c2)nn1C | – | 7.51 µM (active) | 58.7 µM (active) | 0.3 µM (active) | – |
| CCOC(=O)c1c(C)[nH]c(/C=N/c2ccc(OC)cc2)c1O | – | 4.53 µM (active) | 46.9 µM (active) | 16.5 µM (active) | – |
| C(=N\C(/N=C/c1ccco1)c1ccco1)/c1ccco1 | – | > 120 µM (not active) | > 120 µM (not active) | 28.9 µM (active) | – |
| CC(C)(C)c1ccc(OCc2ccc(C(=O)N/N=C/c3ccc([N+](=O)[O-])cc3)o2)cc1 | 23.3 µM (active) | – | – | – | – |
| COc1ccc(S(=O)(=O)n2ccc(-c3ccc4c(c3)CCC(C)(C)O4)n2)cc1 | – | 43.4 µM (active) | 17.2 µM (active) | > 120 µM (not active) | – |
